Measurements taken from patent US9487794B2, “Feruloyl-CoA:monolignol transferase” (Board of Trustees of Michigan State University, priority 2010, dated 2016).

Key:
[1] = tested on: feruloyl-CoA:monolignol transferase (FMT); assay: Feruloyl-CoA:monolignol transferase (FMT) enzymatic assay, substrate test with UPLC detection of product; type: biochemical, Angelica sinensis; settings: purified recombinant FMT; for product formed from CoA thioester as acyl donor: coniferyl alcohol as acyl acceptor (FIGS. 2, 6, 7); for FMT activity with monolignol as acyl acceptor: feruloyl-CoA as acyl donor (FIGS. 2, 4, 5)
Procedure: The feruloyl-CoA, p-coumaroyl-CoA, and caffeoyl-CoA substrates used in the FMT assay were enzymatically synthesized using the tobacco 4-coumarate-CoA-ligase (4CL) with a c-terminal HIS tag in pCRT7/CT TOPO, provided by Eran Pichersky. Following a method modified from Beuerle and Pichersky (Anal. Biochem. 302(2): 305-12 (2001)) 3.3 mg of ferulic acid, coumaric acid or caffeic acid, 2 mg coenzyme A, and 6.9 mg ATP were added to 50 mM Tris-hydrochloride pH 8 and 2.5 mM magnesium chloride in a final volume of 10 ml. The reaction was started by adding 0.25 mg 4CL, protein purified as described by the method of Beurerle and Pichershy. After a five-hour incubation at room temperature, additional 6.9 mg ATP, 2 mg coenzyme A, and 0.25 mg purified 4CL were added and the reaction was incubated overnight. The CoA esters were purified on an SPE cartridge as described in Beuerle and Pichersky (2001).
(§1) The FMT activity assay contained 100 mM MOPS pH 6.8, 1 mM dithiothreitol (DTT), 1 mM feruloyl-CoA, 1 mM coniferyl alcohol, 3.9 μg of purified FMT protein and deionized water to a volume of 50 μL. After a 30-minute incubation, 1 μL of 10 M hydrochloric acid was added to stop the reaction. Because the product synthesized in the reaction, coniferyl ferulate (CAFA), is insoluble, 50 μL of methanol was added to solubilize the CAFA. Prior to UPLC, protein and insoluble material were removed by filtering through an Amicon Ultracel 10K membrane filter (Millipore). The flow-through was analyzed using an Acquity Ultra Performance LC with an Acquity UPLC BEH C18 1.7 μm 2.1×100 mm column and the Acquity Console and Empower 2 Software, all from Waters Corporation. The solvents used in this method were solvent A, 0.1% trifluoroacetic acid, and solvent B, 100% acetonitrile. Samples were analyzed using the following gradient conditions, 13% B, for 5 minutes, 1 minute linear gradient to 42% B, held for 4 minutes, 1 minute linear gradient to 100% B, held for 1 minutes and 3 minutes at 13% B with a flow rate of 0.3 ml/minute. This method was then used to analyze a 10 μL injection of each assay reaction; standards for each of the substrates along with chemically synthesized CAFA were used to determine retention times for each compound.
Purified recombinant enzyme was assayed for FMT activity using a reaction mixture containing 2 mM coniferyl alcohol, […], 100 mM HEPES pH 7.4 and 1 mM DTT. The second most abundant BAHD acyltransferase gene when incubated with Coniferyl alcohol and feruloyl-CoA produced a compound with the retention time of authentic coniferyl ferulate (CAFA) (FIG. 2). […] The addition of methanol to 50% after stopping the enzyme with acid was required to analyze the product by UPLC. The insolubility of the product made partial purification easy as the product was separated from the substrates by centrifugation.
This partial purified product was analyzed by NMR. The identity of the product as CAFA was confirmed by ^1H-NMR (FIG. 3). The enzyme was tested with p-coumaryl alcohol (FIG. 4) and sinapyl alcohol (FIG. 5) in addition to coniferyl alcohol (FIG. 2). The enzyme is active with all three monolignols, i.e., p-coumaryl alcohol, coniferyl alcohol and sinapyl alcohol. The enzyme was tested with p-coumaroyl-CoA (FIG. 6) and caffeoyl-CoA (FIG. 7) as well as feruloyl-CoA (FIG. 2).

[2] = Solubility of the enzyme product in the aqueous assay mixture; type: physicochemical; settings: FMT reaction product; methanol to 50% needed to solubilize
Procedure: as §1, with “compound. […]” for “compound.”

product formed from CoA thioester as acyl donor [1] | FMT activity with monolignol as acyl acceptor [1] | further results | SMILES
very little product |  |  | CC(C)(COP(=O)(O)OP(=O)(O)OC[C@H]1O[C@@H](n2cnc3c(N)ncnc32)[C@H](O)[C@@H]1OP(=O)(O)O)[C@@H](O)C(=O)NCCC(=O)NCCSC(=O)/C=C/c1ccc(O)c(O)c1 [caffeoyl-CoA]
 | active |  | COc1cc(/C=C/CO)ccc1O [coniferyl alcohol]
 |  | solubility in water [2]: mostly insoluble in water | COc1cc(/C=C/COC(=O)/C=C/c2ccc(O)c(OC)c2)ccc1O [coniferyl ferulate]
substantial product |  |  | COc1cc(/C=C/C(=O)SCCNC(=O)CCNC(=O)[C@H](O)C(C)(C)COP(=O)(O)OP(=O)(O)OC[C@H]2O[C@@H](n3cnc4c(N)ncnc43)[C@H](O)[C@@H]2OP(=O)(O)O)ccc1O [feruloyl-CoA]
very little product |  |  | CC(C)(COP(=O)(O)OP(=O)(O)OC[C@H]1O[C@@H](n2cnc3c(N)ncnc32)[C@H](O)[C@@H]1OP(=O)(O)O)[C@@H](O)C(=O)NCCC(=O)NCCSC(=O)/C=C/c1ccc(O)cc1 [p-coumaroyl-CoA]
 | active |  | OC/C=C/c1ccc(O)cc1 [p-coumaryl alcohol]
 | active |  | COc1cc(/C=C/CO)cc(OC)c1O [sinapyl alcohol]
